Columns and labels:
Experiment in all cases: relative viability (nuclei count vs DMSO), 5 days (fraction); higher = more cells survive
R406 + Navitoclax = compound: COc1cc(Nc2ncc(F)c(Nc3ccc4c(n3)NC(=O)C(C)(C)O4)n2)cc(OC)c1OC [R406] + CC1(C)CCC(c2ccc(Cl)cc2)=C(CN2CCN(c3ccc(C(=O)NS(=O)(=O)c4ccc(N[C@H](CCN5CCOCC5)CSc5ccccc5)c(S(=O)(=O)C(F)(F)F)c4)cc3)CC2)C1 [Navitoclax] (partner 0.5 µM)
Method in brief: (§1)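 Lung cancer cell lines in 1536-well plates were dosed by pin tool the day after seeding, either with one drug alone or with a fixed anchor-drug dose plus five library-drug doses (not always all listed) in √10 steps. After 5 days, cells were fixed and their nuclei stained in one step (final 0.05% Triton X-100, 1% formaldehyde, 1 ug/ml Hoechst), then counted on 4× images. Relative viability is the nuclei count in treated wells divided by that in vehicle wells. Values are medians of duplicate plates.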

R406 + Lapatinib = compound: COc1cc(Nc2ncc(F)c(Nc3ccc4c(n3)NC(=O)C(C)(C)O4)n2)cc(OC)c1OC [R406] + CS(=O)(=O)CCNCc1ccc(-c2ccc3ncnc(Nc4ccc(OCc5cccc(F)c5)c(Cl)c4)c3c2)o1 [Lapatinib] (partner 2 µM)
Method in brief: as §1

Daporinad + Luminespib = compound: O=C(/C=C/c1cccnc1)NCCCCC1CCN(C(=O)c2ccccc2)CC1 [Daporinad] + CCNC(=O)c1noc(-c2cc(C(C)C)c(O)cc2O)c1-c1ccc(CN2CCOCC2)cc1 [Luminespib] (partner 0.01 µM)
Method in brief: as §1

Daporinad + Dasatinib = compound: O=C(/C=C/c1cccnc1)NCCCCC1CCN(C(=O)c2ccccc2)CC1 [Daporinad] + Cc1nc(Nc2ncc(C(=O)Nc3c(C)cccc3Cl)s2)cc(N2CCN(CCO)CC2)n1 [Dasatinib] (partner 0.075 µM)
Method in brief: as §1

Cell Line | relative viability (R406 + Navitoclax; first compound 0.08 µM) | relative viability (R406 + Navitoclax; first compound 0.253 µM) | relative viability (R406 + Navitoclax; first compound 0.8 µM) | relative viability (R406 + Navitoclax; first compound 2.53 µM) | relative viability (R406 + Navitoclax; first compound 8 µM) | relative viability (R406 + Lapatinib; first compound 0.08 µM) | relative viability (R406 + Lapatinib; first compound 0.253 µM) | relative viability (R406 + Lapatinib; first compound 0.8 µM) | relative viability (R406 + Lapatinib; first compound 2.53 µM) | relative viability (R406 + Lapatinib; first compound 8 µM) | relative viability (Daporinad + Luminespib; first compound 0.0005 µM) | relative viability (Daporinad + Luminespib; first compound 0.001581 µM) | relative viability (Daporinad + Luminespib; first compound 0.005 µM) | relative viability (Daporinad + Luminespib; first compound 0.01581 µM) | relative viability (Daporinad + Dasatinib; first compound 0.0005 µM) | relative viability (Daporinad + Dasatinib; first compound 0.001581 µM) | relative viability (Daporinad + Dasatinib; first compound 0.005 µM) | relative viability (Daporinad + Dasatinib; first compound 0.01581 µM)
NCI-H1651 | 1.08 | 1.29 | 0.961 | 0.769 | 0.463 | 0.694 | 0.87 | 0.944 | 0.234 | 0.275 | 0.829 | 0.676 | 0.805 | 0.67 | 0.419 | 0.433 | 0.439 | 0.446
A-427 | 0.912 | 1.02 | 0.981 | 0.572 | 0.78 | 0.922 | 1.14 | 1.17 | 0.958 | 0.801 | 0.959 | 0.953 | 0.742 | 0.671 | 0.613 | 0.841 | 0.618 | 0.338
NCI-H2347 | 0.736 | 0.824 | 0.95 | 0.663 | 0.529 | 1.01 | 0.968 | 0.958 | 0.905 | 0.801 | 0.607 | 0.43 | 0.322 | 0.431 | 0.326 | 0.308 | 0.342 | 0.299
NCI-H1355 | 1.05 | 0.94 | 1.08 | 0.542 | 0.648 | 0.887 | 0.974 | 1.08 | 0.901 | 0.764 | 0.79 | 0.793 | 0.752 | 0.81 | 0.664 | 0.674 | 0.671 | 0.761
NCI-H1944 | 0.992 | 1.05 | 1.05 | 0.846 | 0.743 | 0.756 | 0.862 | 0.855 | 0.559 | 0.614 | 0.85 | 0.802 | 0.829 | 0.729 | 0.228 | 0.232 | 0.221 | 0.237
RERF-LC-KJ | 1.09 | 0.64 | 1.03 | 0.738 | 0.842 | 0.682 | 0.876 | 1.01 | 0.761 | 0.794 | 1.22 | 1.4 | 1.18 | 1.07 | 0.757 | 0.804 | 0.975 | 0.804
NCI-H2228 | 1.17 | 1.33 | 0.996 | 0.628 | 0.168 | 1.13 | 1.27 | 1.5 | 0.13 | 0.131 | 0.17 | 0.173 | 0.221 | 0.163 | 0.543 | 0.563 | 0.569 | 0.554
HOP-62 | 0.937 | 0.985 | 1.11 | 1.1 | 1.06 | 0.918 | 0.949 | 1.08 | 1.06 | 1.12 | 0.898 | 0.963 | 1.03 | 0.688 | 0.62 | 0.809 | 0.721 | 0.587

— the supplement of paper PMC10307832
